Where two headings read alike, the source gives them in different places.
Tests used:
hiPSC-CMs [1] = experiment: Cardio-NLCS impedance and extracellular field potential (EFP) recording; assay type: cell-based, human; settings: for Amplitude (EFP): lowest concentration that demonstrated a significant change compare with the control group / Amplitude (IMP): lowest concentration that demonstrated a significant change compare with the control group / Base impedance: lowest concentration that demonstrated a significant change compare with the control group / Beat rate: lowest concentration that demonstrated a significant change compare with the control group / FPD: lowest concentration that demonstrated a significant change compare with the control group: 2, 10, 50 μM tested, recorded over 24 h; for Base impedance vs the control group (in words) / Contractile amplitude (amplitude of IMP) vs the control group (in words) / FPD value vs the control group (in words) / Potential amplitude (amplitude of EFP) vs the control group (in words) / Beat rate vs the control group (in words): 2, 10, 50 μM, 24 h recording; for Amplitude (EFP): initial time of significant change compare with the control group / Amplitude (IMP): initial time of significant change compare with the control group / Base impedance: initial time of significant change compare with the control group: at the lowest effective concentration
Method: (§1) After plating for about 3 days, CMs matured and began to beat. At this time, different compounds were added, and experiments were performed 24 h after treatment. The experiments were grouped as follows: control group (normal medium); matrine, oxymatrine, sophocarpine, and cytisine treatment (2, 10, 50 μM) groups; and aconitine treatment (1 μM) group. The doses of toxicity studies above were determined by the effective therapeutic doses reported and included or exceeded the therapeutic dose.
Cardio-NLCS (Optoprobe Science LTD, Canada) is a turn-key system for efficient impedance and extracellular field potential (EFP) measurements of cell monolayers or tissue preparations. NSP-96 dedicated for Cardio-NLCS should be coated with BD and the wells should not run dry before adding the cell suspension. After seeding, the medium was not exchanged for 12 h. Subsequently, the medium exchange was completed once a day for 2–3 days and every 2 days thereafter. Adding compounds required a complete solution exchange to allow for exact dosing. After the cells were allowed to re-equilibrate for 2–3 h, the 2× concentrated compounds were added by exchanging half of the medium per well. In this experiment, several indexes (base impedance, amplitude, beat rate, and FPD) were recorded at the start of the experiment (control), then every 5 min for 4 h after compound application and every 30 min the same as cell growth period detection, lasting a minimum of 24 h. In this way, both time and concentration-dependent effects could be monitored. Impedance and EFP data analyses were taken every 4 h after compound administrations.

hiPSC-CMs [2] = system: hiPSC-CMs
Method: as §1
Cell treatment method was the same as above. After reaching the predetermined time, 120 μl of the supernatant of each well was taken for measuring LDH leakage using a commercially available kit (Beyotime Biotechnology, Shanghai, China) following the manufacturer’s instructions. Data were presented as the mean ± SEM, n ≥ 3.

GCaMP hESC-CMs = assay type: cell-based, human
Method: The hESC-CMs in this experiment can express the GCaMP reporter gene by gene editing, and green fluorescence marker can be observed by a fluorescence microscope. The fluorescence intensity is proportional to Ca^2+ concentration. The CMs were seeded into 96-well plates at 5000/well and were administered the same as above. The fluorescence intensities of hESC-CMs were monitored using an IncuCyte™ S3 ZOOM cell imaging system (Essen BioScience, Ann Arbor, MI). Data were presented as the mean ± SEM, n ≥ 3.

hiPSC-CMs [3] = experiment: SOD, GSH and MDA assay; assay type: cell-based, human; settings: 2, 10, 50 μM
Method: as §1
Cell treatment was the same as discussed in the “Compound treatment” section. After reaching the predetermined time, the cells were washed with 4 °C physiological saline and later were added into the lysate and appropriately pipetted. After centrifuging at 1.2 × 10^4 rpm for 5 min, the supernatant was obtained to measure the levels of SOD, GSH and MDA using a commercially available kit (Beyotime Biotechnology, Shanghai, China) following the manufacturer's instructions. Data were presented as the mean ± SEM, n ≥ 3.

hiPSC-CMs [4] = settings: for Cell viability (in words): hiPSC-CMs, alkaloids 2, 10, 50 μM, aconitine 1 μM, 24 h
Method: as §1
CMs were incubated in 10% CCK-8 (Dojindo, Kumamoto, Japan) that was diluted in normal culture medium at 37 °C until a visual color conversion occurred. The absorbance of each well was measured using a microplate reader (Spectrafluor, TECAN, Sunrise, Austria) at 450 nm. Three individual experiments were performed. All samples were operated in duplicate.
A 96-well plate was used to seed hiPSC-CMs at a concentration of 5 × 10^4 cells per well. The cultured cells were treated with different concentrations of compounds and were incubated for another 48 h. CMs were digested with trypsin, and a small amount of cell suspension was added into the same amount of trypan blue solution. Countstar Automated Cell Counter IC1000 (Elite Life Sciences, Shanghai, China) was used to count the number of total and living cells. Data were presented as the mean ± SEM, n ≥ 3.

hiPSC-CMs [5] = assay type: cell-based, human
Method: Cells were incubated in a maintaining medium containing 10 μM DCFH-DA (Beyotime Biotechnology, Shanghai, China) for 30 min at 37 °C in the dark. The measurement of ROS was performed with IncuCyte™ S3 ZOOM cell imaging system (Essen BioScience, Ann Arbor, MI). TissueQuest 6.0 was used for the quantitative analysis of ROS formation. Data were presented as the mean ± SEM, n ≥ 3.

Row | Structure (SMILES) | Amplitude (EFP): lowest concentration that demonstrated a significant change compare with the control group (hiPSC-CMs [1]) [µM] | Amplitude (IMP): lowest concentration that demonstrated a significant change compare with the control group (hiPSC-CMs [1]) [µM] | Base impedance: lowest concentration that demonstrated a significant change compare with the control group (hiPSC-CMs [1]) [µM] | Beat rate: lowest concentration that demonstrated a significant change compare with the control group (hiPSC-CMs [1]) [µM] | FPD: lowest concentration that demonstrated a significant change compare with the control group (hiPSC-CMs [1]) | Base impedance vs the control group (in words) (hiPSC-CMs [1]) | Contractile amplitude (amplitude of IMP) vs the control group (in words) (hiPSC-CMs [1]) | FPD value vs the control group (in words) (hiPSC-CMs [1]) | Potential amplitude (amplitude of EFP) vs the control group (in words) (hiPSC-CMs [1]) | Amplitude (EFP): initial time of significant change compare with the control group (hiPSC-CMs [1]) [h] | Amplitude (IMP): initial time of significant change compare with the control group (hiPSC-CMs [1]) [h] | Base impedance: initial time of significant change compare with the control group (hiPSC-CMs [1]) [h] | GSH activity (in words) (hiPSC-CMs [3]) | MDA level (in words) (hiPSC-CMs [3]) | SOD activity (in words) (hiPSC-CMs [3]) | Cell viability (in words) (hiPSC-CMs [4]) | other results
1 | O=c1cccc2n1C[C@@H]1CNC[C@H]2C1 [Cytisine, cytisine] | 50 | 10 | 50 | 10 | No effect | no change except 50 μM cytisine treatment | upward trend | no significant effect | upward trend | 16 | 4 | 12 | sharply lowered | rose | sharply lowered | decreased dose-dependently | Beat rate vs the control group (in words) (hiPSC-CMs [1]; listed as cytisine): slightly lowered; FPD value vs the control group (in words) (hiPSC-CMs [1]; listed as cytisine): remained stable in all groups; LDH leakage: lowest concentration that demonstrated a significant change compare with the control group (hiPSC-CMs [2]; human): 2 µM; [Ca^2+]i: lowest concentration that demonstrated a significant change compare with the control group (GCaMP hESC-CMs; human): 50 µM; Cell viability: lowest concentration that demonstrated a significant change compare with the control group (hiPSC-CMs [4]; human): 50 µM; ROS level: lowest concentration that demonstrated a significant change compare with the control group (hiPSC-CMs [5]; human): 50 µM
2 | O=C1CCC[C@@H]2[C@H]3CCCN4CCC[C@@H](CN12)[C@@H]34 [Matrine, matrine] | 50 | 10 | 10 | 2 | 50 µM | slightly lowered | upward trend | rose in the first half of matrine treatment | upward trend | 20 | 4 | 16 | sharply lowered | rose | sharply lowered | decreased dose-dependently | Beat rate vs the control group (in words) (hiPSC-CMs [1]): slightly lowered; Beat rate in comparison with the low-dose group (in words) (hiPSC-CMs [1]; higher concentrations 10, 50 μM): an increase in beat rate can be detected; Beat rate (in words) (hiPSC-CMs [1]; low, therapeutically relevant concentration 2 μM): a decrease in the beat rate can be detected; LDH leakage: lowest concentration that demonstrated a significant change compare with the control group (hiPSC-CMs [2]; hiPSC-CMs, 2, 10, 50 μM tested): 2 µM; Fluorescence intensity of calcium, [Ca^2+]i (in words) (GCaMP hESC-CMs; GCaMP hESC-CMs, high dose of alkaloids (50 μM), aconitine 1 μM): increased significantly; [Ca^2+]i: lowest concentration that demonstrated a significant change compare with the control group (GCaMP hESC-CMs; hESC-CMs, 2, 10, 50 μM tested): 50 µM; ROS level: lowest concentration that demonstrated a significant change compare with the control group (hiPSC-CMs [5]; hiPSC-CMs, 2, 10, 50 μM tested): 50 µM; ROS fluorescence / ROS production (in words) (hiPSC-CMs [5]; hiPSC-CMs, high dose of alkaloids (50 μM), aconitine 1 μM): induced ROS production in excess
